# Data: patent publication US6855338B2, “Anti-tumor therapies comprising a combination of a cartilage extract and an anti-neoplastic agent providing high efficacy and low toxic side effects” (priority 1997, dated 2005)
# How the values were obtained:
# LLC lung metastasis = test: Lewis lung carcinoma model (LLC), number of lung metastases; assay type: in vivo, C57B1/6 mice; conditions: for Percent reduction from control (lung metastases): first experiment
# Description: We have verified the anti-tumor efficacy and the protective effect of cartilage extract by testing a combination of diverse concentrations of cartilage liquid extract alone and in combination with cisplatin (CDDP), in the Lewis lung carcinoma model (LLC). LLC cells were resuspended in sterile PBS (10^6 cells/0.2 ml) and implanted in C57B1/6 mice. After a period of 11 days, primary tumors reached an average volume of 1.0 cm^3 and were surgically resected. After surgery, mice were randomized into groups of 15 animals and control article (saline) and cartilage extract were administered on a daily basis via oral gavage at the dose levels indicated for a period of 15 days. At day 16-post-surgery, animals were sacrificed, the lungs fixed in 10% […] and the number of lung metastases counted. Animals were always kept under controlled environment: temperature 22° C., humidity 40% to 50%, light/dark cycle: 12 hours. They were fed and given water ad libitum. In a first experiment, five injections of CDDP were given intraperitoneally every three days (1, 2 and 3 mg/Kg). Cartilage extract was given per as daily (31, 125 and 500 mg/Kg). Saline was given as a control. In a second independent experiment, CDDP was given at a dose of 4 mg/kg. Cartilage extract was given at doses 75, 150 and 500 mg/kg. Saline was given again as a control. Administration of CDDP alone reduced the number of metastases by about 71%.
# [1] = Toxic side effects by body weights of LLC mice; assay type: in vivo, C57B1/6 mice; conditions: CDDP alone 4 mg/kg; after fifteen days from inoculation
# Description: LLC cells were resuspended in sterile PBS (10^6 cells/0.2 ml) and implanted in C57B1/6 mice. After a period of 11 days, primary tumors reached an average volume of 1.0 cm^3 and were surgically resected. After surgery, mice were randomized into groups of 15 animals and control article (saline) and cartilage extract were administered on a daily basis via oral gavage at the dose levels indicated for a period of 15 days. At day 16-post-surgery, animals were sacrificed, the lungs fixed in 10% […] and the number of lung metastases counted. Animals were always kept under controlled environment: temperature 22° C., humidity 40% to 50%, light/dark cycle: 12 hours. They were fed and given water ad libitum. The toxic side effects were evaluated by measuring the body weights. The results are illustrated in FIG. 2. During the first week of treatment, the body weights increased in all groups. Treatment started on Day 12 of the protocol. The decrease in body weight observed between the second and the third time point of the graph results from the surgery (on day 11) necessary to remove the primary LLC tumor mass. After fifteen days from inoculation, it was observed that CDDP alone was very toxic since a decrease of about 16% of body weight occurred in comparison to the non-treated group.
# [2] = system: peripheral white blood cells; test: Number of peripheral white blood cells in normal mice; assay type: in vivo; conditions: for Number of white blood cells: day 15
# Description: Toxicity was evaluated in cancerous animals by the body weight decrease. We further characterized the nature of the protective effect provided by the cartilage extract by assessing an hematology parameter namely the number of peripheral white blood cells. Normal mice were injected (l.P.) with CDDP (3 and 4 mg/kg) on days 1, 4, 7, 10 and 13 of the experimental protocol. The cartilage extract was administered, orally, at doses of 75, 150 and 500 mg/kg/day. Animals were sacrificed on day 15 and blood samples were collected for cell count using an automated blood cell analyzer. Groups consisted of animals receiving CDDP alone, the cartilage extract alone, both in combination or saline as negative control. […] Values obtained from individual groups that have received cartilage extract were pooled to increase statistical power. Mean white blood cell counts were plotted according to treatment group regimen (FIG. 3). A linear trend indicated a clear monotonic trend (r^2=0.9126) for as decrease in cell counts according to treatment regimen stringency. This observation is in agreement with a protective effect of the cartilage extract relative to the peripheral white blood cell population reduced during CDDP administration.
smiles,measurement,setting,value
"[NH2][Pt]([NH2])([Cl])[Cl] [CDDP, cisplatin]",Percent reduction from control (lung metastases),"LLC lung metastasis; CDDP 1 mg/kg i.p., alone",19%
same,Percent reduction from control (lung metastases),"LLC lung metastasis; CDDP 2 mg/kg i.p., alone",35%
same,Percent reduction from control (lung metastases),"LLC lung metastasis; CDDP 3 mg/kg i.p. every three days x5, alone",54%
same,reduction of the number of metastases,"LLC lung metastasis; CDDP alone 4 mg/kg, second independent experiment",about 71%
same,decrease in metastases,"LLC lung metastasis; CDDP alone at 5 mg/kg (data not shown), stated equivalent to the 500 mg/kg/day + 3 mg combination",~85%
same,decrease of body weight in comparison to the non-treated group,[1],about 16%
same,Number of white blood cells,"[2]; CDDP 3 mg/kg i.p. days 1, 4, 7, 10, 13",3.4e+09 L⁻¹
same,Number of white blood cells,"[2]; CDDP 4 mg/kg i.p. days 1, 4, 7, 10, 13",3.3e+09 L⁻¹
same,effect on number of white blood cells,[2]; CDDP 3 and 4 mg/kg alone,significant decrease of the number of white blood cells
